Assay results taken from ChEMBL document CHEMBL3813616, “Discovery of novel 7-azaindoles as PDK1 inhibitors” (Bioorg Med Chem Lett, 2016).

Key:
[1] = Efflux ratio of permeability from basolateral to apical over apical to basolateral side in human Caco2 cells; type: ADME, cell-based; settings: Caco-2
Homo sapiens = organism: Homo sapiens; experiment: Selectivity ratio of IC50 for PI3K alpha (unknown origin) to IC50 for human His6-tagged PDK1
[2] = Solubility of the compound; type: physicochemical
[3] = target: Phosphatidylinositol 4,5-bisphosphate 3-kinase catalytic subunit alpha isoform (Homo sapiens, UniProt P42336); experiment: Inhibition of PI3K alpha (unknown origin) at 10 uM
[4] = target: Phosphatidylinositol 4,5-bisphosphate 3-kinase catalytic subunit delta isoform (Homo sapiens) (UniProt O00329); experiment: Inhibition of PI3K delta (unknown origin) at 10 uM
[5] = target: Interleukin-1 receptor-associated kinase 1 (Homo sapiens) (UniProt P51617); experiment: Inhibition of human IRAK1 (1 to 712 residues) assessed as enzyme activity at 1 uM using 33P ATP by radioactive filter binding assay; parameters: scale not given: the % may be the effect or the level left
Interleukin-1 receptor-associated kinase 1 (Homo sapiens), sequence (P51617 whole entry, looked up, the tested form may be a part): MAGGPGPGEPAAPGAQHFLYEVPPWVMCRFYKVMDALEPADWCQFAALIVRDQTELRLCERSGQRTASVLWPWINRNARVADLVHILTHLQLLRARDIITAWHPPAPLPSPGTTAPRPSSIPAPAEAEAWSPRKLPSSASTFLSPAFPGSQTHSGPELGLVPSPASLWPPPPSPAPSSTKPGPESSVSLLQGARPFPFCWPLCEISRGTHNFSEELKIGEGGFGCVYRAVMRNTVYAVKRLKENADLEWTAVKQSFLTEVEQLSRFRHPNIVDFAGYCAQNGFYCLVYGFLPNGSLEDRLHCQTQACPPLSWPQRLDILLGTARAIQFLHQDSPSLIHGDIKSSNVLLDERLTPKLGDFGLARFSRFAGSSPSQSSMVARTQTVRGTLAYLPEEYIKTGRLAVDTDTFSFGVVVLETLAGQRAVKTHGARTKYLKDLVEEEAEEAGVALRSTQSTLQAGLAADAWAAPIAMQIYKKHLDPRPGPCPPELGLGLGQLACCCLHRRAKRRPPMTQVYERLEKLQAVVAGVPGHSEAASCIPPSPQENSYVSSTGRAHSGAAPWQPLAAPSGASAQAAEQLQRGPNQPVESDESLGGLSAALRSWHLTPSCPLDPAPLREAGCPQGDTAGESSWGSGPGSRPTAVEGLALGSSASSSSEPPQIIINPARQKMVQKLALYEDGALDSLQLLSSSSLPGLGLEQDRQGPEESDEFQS

[6] = target: Interleukin-1 receptor-associated kinase 4 (Homo sapiens) (UniProt Q9NWZ3); experiment: Inhibition of human IRAK4 (14 to 460 residues) assessed as enzyme activity at 1 uM using 33P ATP by radioactive filter binding assay; parameters: scale not given: the % may be the effect or the level left
Interleukin-1 receptor-associated kinase 4 (Homo sapiens), sequence (Q9NWZ3 whole entry, the tested form may be a part): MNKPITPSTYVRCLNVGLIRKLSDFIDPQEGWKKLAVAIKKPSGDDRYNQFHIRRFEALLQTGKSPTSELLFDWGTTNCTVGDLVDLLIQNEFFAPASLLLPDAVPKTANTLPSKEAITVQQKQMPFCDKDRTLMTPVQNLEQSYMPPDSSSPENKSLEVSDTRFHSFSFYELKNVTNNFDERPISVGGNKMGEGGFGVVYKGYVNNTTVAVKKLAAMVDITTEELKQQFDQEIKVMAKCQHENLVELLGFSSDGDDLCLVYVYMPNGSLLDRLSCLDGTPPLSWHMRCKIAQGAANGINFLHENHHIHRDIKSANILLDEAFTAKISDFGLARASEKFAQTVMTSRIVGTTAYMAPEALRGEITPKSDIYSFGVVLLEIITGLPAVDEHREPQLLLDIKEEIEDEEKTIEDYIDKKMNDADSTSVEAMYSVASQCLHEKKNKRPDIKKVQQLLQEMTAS

[7] = target: Mitogen-activated protein kinase 9 (Homo sapiens) (UniProt P45984); experiment: Inhibition of human JNK2 (1 to 424 residues) assessed as enzyme activity at 1 uM using 33P ATP by radioactive filter binding assay; parameters: scale not given: the % may be the effect or the level left
Mitogen-activated protein kinase 9 (Homo sapiens), sequence (P45984 whole entry, looked up, the tested form may be a part): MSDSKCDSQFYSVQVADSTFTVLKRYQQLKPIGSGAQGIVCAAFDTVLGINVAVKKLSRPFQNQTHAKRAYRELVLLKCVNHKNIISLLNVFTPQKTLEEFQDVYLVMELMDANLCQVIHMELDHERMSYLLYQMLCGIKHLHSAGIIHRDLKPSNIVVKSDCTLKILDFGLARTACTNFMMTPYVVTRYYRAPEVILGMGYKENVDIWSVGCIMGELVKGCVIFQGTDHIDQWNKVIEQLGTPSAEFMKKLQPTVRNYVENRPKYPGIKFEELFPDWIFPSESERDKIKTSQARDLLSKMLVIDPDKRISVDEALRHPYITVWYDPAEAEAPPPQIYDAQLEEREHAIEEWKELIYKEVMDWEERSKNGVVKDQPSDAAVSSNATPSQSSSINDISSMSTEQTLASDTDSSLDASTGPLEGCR

[8] = target: Serine/threonine-protein kinase STK11 (Homo sapiens) (UniProt Q15831); experiment: Inhibition of human LKB1 (1 to 433 residues) assessed as enzyme activity at 1 uM using 33P ATP by radioactive filter binding assay; parameters: scale not given: the % may be the effect or the level left
[9] = target: MAP/microtubule affinity-regulating kinase 4 (Homo sapiens) (UniProt Q96L34); experiment: Inhibition of human MARK4 (2 to 752 residues) assessed as enzyme activity at 1 uM using 33P ATP by radioactive filter binding assay; parameters: scale not given: the % may be the effect or the level left
[10] = target: Mitogen-activated protein kinase kinase kinase 1 (Homo sapiens) (UniProt Q13233); experiment: Inhibition of human MEKK1 (877 to 1563 residues) assessed as enzyme activity at 1 uM using 33P ATP by radioactive filter binding assay; parameters: scale not given: the % may be the effect or the level left
Mitogen-activated protein kinase kinase kinase 1 (Homo sapiens), sequence (Q13233 whole entry, the tested form may be a part): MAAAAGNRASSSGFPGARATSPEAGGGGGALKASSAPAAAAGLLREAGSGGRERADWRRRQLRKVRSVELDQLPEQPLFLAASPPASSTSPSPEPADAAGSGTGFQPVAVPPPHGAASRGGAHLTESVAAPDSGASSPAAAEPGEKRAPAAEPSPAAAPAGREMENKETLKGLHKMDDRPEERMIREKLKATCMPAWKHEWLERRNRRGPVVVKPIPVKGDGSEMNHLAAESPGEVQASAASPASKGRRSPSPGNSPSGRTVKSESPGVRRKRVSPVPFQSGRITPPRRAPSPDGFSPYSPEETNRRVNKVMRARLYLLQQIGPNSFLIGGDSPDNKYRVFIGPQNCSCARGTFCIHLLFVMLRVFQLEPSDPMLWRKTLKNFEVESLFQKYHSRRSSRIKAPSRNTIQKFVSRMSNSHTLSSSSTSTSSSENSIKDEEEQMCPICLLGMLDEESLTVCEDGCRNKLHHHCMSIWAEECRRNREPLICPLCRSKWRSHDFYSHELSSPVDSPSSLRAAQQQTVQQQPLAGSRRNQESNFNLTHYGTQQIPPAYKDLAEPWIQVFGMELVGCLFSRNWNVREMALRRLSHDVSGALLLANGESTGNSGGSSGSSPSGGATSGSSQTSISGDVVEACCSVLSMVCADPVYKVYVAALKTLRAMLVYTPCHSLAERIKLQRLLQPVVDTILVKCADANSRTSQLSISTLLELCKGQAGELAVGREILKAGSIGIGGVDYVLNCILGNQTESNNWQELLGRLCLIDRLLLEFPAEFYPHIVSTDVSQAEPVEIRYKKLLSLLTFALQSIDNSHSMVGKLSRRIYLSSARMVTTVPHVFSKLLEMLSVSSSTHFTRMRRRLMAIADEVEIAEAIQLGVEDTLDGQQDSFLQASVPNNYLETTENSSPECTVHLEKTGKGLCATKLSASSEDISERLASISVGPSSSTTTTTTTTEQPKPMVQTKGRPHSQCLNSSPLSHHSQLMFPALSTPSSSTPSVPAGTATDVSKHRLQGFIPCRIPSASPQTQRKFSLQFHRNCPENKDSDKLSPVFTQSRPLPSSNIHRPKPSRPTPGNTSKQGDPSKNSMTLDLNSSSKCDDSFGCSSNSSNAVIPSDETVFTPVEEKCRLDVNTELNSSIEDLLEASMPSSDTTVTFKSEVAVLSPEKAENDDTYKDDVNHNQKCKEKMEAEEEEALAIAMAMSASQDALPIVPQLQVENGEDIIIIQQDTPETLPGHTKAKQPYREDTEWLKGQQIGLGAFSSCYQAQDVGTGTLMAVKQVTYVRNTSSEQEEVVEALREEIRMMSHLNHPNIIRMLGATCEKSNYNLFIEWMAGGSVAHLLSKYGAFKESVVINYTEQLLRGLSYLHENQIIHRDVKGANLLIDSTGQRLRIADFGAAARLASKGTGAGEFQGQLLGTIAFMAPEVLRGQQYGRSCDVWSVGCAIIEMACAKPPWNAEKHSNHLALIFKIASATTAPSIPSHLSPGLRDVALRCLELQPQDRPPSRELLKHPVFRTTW

[11] = target: Serine/threonine-protein kinase 16 (Homo sapiens) (UniProt O75716); experiment: Inhibition of human MPSK1 (1 to 305 residues) assessed as enzyme activity at 1 uM using 33P ATP by radioactive filter binding assay; parameters: scale not given: the % may be the effect or the level left
[12] = target: NUAK family SNF1-like kinase 1 (Homo sapiens) (UniProt O60285); experiment: Inhibition of human NUAK1 (2 to 660 residues) assessed as enzyme activity at 1 uM using 33P ATP by radioactive filter binding assay; parameters: scale not given: the % may be the effect or the level left
[13] = target: Serine/threonine-protein kinase PAK 2 (Homo sapiens) (UniProt Q13177); experiment: Inhibition of human PAK2 (1 to 524 residues) assessed as enzyme activity at 1 uM using 33P ATP by radioactive filter binding assay; parameters: scale not given: the % may be the effect or the level left
Serine/threonine-protein kinase PAK 2 (Homo sapiens), sequence (Q13177 whole entry, the tested form may be a part): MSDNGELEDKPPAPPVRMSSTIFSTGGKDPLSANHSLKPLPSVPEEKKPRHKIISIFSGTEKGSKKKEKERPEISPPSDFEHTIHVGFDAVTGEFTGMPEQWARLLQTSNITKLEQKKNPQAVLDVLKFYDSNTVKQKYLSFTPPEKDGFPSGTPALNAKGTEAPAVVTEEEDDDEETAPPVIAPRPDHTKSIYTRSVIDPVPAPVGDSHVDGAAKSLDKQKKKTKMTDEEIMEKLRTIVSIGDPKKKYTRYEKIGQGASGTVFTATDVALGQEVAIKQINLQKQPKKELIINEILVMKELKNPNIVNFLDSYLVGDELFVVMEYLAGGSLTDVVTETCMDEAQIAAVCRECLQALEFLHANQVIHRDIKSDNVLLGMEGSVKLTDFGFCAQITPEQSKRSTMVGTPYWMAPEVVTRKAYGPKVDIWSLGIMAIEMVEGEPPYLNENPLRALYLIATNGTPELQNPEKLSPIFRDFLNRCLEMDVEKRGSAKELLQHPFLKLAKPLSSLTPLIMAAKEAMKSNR

[14] = target: Protein kinase C gamma type (Homo sapiens) (UniProt P05129); experiment: Inhibition of human PKCgamma (1 to 697 residues) assessed as enzyme activity at 1 uM using 33P ATP by radioactive filter binding assay; parameters: scale not given: the % may be the effect or the level left
[15] = target: Receptor-interacting serine/threonine-protein kinase 2 (Homo sapiens) (UniProt O43353); experiment: Inhibition of human RIPK2 (2 to 311 residues) assessed as enzyme activity at 1 uM using 33P ATP by radioactive filter binding assay; parameters: scale not given: the % may be the effect or the level left
[16] = target: Ribosomal protein S6 kinase alpha-1 (Homo sapiens) (UniProt Q15418); experiment: Inhibition of human RSK1 (1 to 735 residues) assessed as enzyme activity at 1 uM using 33P ATP by radioactive filter binding assay; parameters: scale not given: the % may be the effect or the level left
Ribosomal protein S6 kinase alpha-1 (Homo sapiens), sequence (Q15418 whole entry, the tested form may be a part): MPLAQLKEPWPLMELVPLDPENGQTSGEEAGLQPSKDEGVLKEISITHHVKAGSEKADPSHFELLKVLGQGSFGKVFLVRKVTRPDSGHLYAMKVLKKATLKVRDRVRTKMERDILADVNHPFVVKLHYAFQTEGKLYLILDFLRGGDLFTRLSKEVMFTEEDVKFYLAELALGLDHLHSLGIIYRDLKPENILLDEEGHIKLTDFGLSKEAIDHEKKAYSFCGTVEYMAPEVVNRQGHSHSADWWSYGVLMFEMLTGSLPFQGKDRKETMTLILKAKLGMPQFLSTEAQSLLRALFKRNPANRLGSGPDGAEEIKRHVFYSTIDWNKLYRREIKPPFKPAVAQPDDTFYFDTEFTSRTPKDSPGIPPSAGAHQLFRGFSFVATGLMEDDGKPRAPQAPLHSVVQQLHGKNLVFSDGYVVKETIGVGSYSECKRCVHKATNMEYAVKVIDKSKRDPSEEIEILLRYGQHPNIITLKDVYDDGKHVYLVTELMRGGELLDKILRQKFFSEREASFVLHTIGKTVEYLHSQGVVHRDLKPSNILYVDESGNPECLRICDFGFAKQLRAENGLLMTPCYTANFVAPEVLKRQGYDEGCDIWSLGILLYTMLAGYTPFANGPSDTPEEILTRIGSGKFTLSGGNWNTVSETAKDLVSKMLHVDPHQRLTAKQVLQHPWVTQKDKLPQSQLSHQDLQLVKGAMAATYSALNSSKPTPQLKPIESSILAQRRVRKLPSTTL

[17] = target: Mitogen-activated protein kinase kinase kinase 7 (Homo sapiens) (UniProt O43318); experiment: Inhibition of human TAB1 fused TAK1 (1 to 303 residues) assessed as enzyme activity at 1 uM using 33P ATP by radioactive filter binding assay; parameters: scale not given: the % may be the effect or the level left
Mitogen-activated protein kinase kinase kinase 7 (Homo sapiens), sequence (O43318 whole entry, the tested form may be a part): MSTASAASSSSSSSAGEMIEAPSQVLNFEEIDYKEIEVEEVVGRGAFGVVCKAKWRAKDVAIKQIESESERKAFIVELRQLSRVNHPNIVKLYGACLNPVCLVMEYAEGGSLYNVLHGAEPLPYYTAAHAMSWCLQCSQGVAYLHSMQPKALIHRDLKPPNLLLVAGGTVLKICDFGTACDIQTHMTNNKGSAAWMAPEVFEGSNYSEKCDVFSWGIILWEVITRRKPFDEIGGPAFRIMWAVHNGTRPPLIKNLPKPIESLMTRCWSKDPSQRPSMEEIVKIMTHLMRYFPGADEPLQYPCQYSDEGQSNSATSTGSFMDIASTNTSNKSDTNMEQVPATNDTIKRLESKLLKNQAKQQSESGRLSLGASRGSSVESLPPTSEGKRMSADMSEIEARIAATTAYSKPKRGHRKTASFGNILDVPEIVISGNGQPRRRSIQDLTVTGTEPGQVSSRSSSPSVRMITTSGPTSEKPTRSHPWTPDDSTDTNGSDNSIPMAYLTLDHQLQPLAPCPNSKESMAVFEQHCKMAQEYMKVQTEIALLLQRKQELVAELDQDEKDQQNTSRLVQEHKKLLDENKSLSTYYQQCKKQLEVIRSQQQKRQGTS

[18] = target: Serine/threonine-protein kinase TAO1 (Homo sapiens) (UniProt Q7L7X3); experiment: Inhibition of human TAO1 (1 to 356 residues) assessed as enzyme activity at 1 uM using 33P ATP by radioactive filter binding assay; parameters: scale not given: the % may be the effect or the level left
[19] = target: Tyrosine-protein kinase ZAP-70 (Homo sapiens) (UniProt P43403); experiment: Inhibition of human ZAP70 (1 to 619 residues) assessed as enzyme activity at 1 uM using 33P ATP by radioactive filter binding assay; parameters: scale not given: the % may be the effect or the level left
[20] = target: T1, 3-phosphoinositide-dependent protein kinase 1 (Homo sapiens, UniProt O15530); experiment: Inhibition of human PDK1
T1 sequence (O15530 whole entry): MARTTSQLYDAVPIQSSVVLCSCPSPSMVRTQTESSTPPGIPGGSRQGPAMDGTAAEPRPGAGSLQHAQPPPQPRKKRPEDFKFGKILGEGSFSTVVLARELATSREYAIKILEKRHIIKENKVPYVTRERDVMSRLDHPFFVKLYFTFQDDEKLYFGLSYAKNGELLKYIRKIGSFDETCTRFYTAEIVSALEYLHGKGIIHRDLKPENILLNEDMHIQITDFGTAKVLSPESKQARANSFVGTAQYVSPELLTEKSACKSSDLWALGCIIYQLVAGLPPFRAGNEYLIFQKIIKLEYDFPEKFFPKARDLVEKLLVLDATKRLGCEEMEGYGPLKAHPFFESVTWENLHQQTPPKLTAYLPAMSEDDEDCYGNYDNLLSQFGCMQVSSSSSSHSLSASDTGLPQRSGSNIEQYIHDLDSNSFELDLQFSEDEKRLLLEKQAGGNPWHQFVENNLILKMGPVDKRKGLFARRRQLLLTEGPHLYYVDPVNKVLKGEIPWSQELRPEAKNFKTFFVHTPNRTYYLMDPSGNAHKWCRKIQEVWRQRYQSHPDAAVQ

[21] = target: Calcium/calmodulin-dependent protein kinase kinase 1 (Homo sapiens) (UniProt Q8N5S9); experiment: Inhibition of CAMKK1 (unknown origin) assessed as enzyme activity at 1 uM using 33P ATP by radioactive filter binding assay; parameters: scale not given: the % may be the effect or the level left
[22] = target: Casein kinase II subunit alpha (Homo sapiens) (UniProt P68400); experiment: Inhibition of human CK2alpha (2 to 391 residues) assessed as enzyme activity at 1 uM using 33P ATP by radioactive filter binding assay; parameters: scale not given: the % may be the effect or the level left
[23] = target: Dual specificity protein kinase CLK2 (Homo sapiens) (UniProt P49760); experiment: Inhibition of human CLK2 (138 to 499 residues) assessed as enzyme activity at 1 uM using 33P ATP by radioactive filter binding assay; parameters: scale not given: the % may be the effect or the level left
[24] = target: Ephrin type-B receptor 2 (Homo sapiens) (UniProt P29323); experiment: Inhibition of human EPHB2 (560 to 987 residues) assessed as enzyme activity at 1 uM using 33P ATP by radioactive filter binding assay; parameters: scale not given: the % may be the effect or the level left
[25] = target: Mitogen-activated protein kinase 1 (Homo sapiens) (UniProt P28482); experiment: Inhibition of human ERK2 (2 to 360 residues) assessed as enzyme activity at 1 uM using 33P ATP by radioactive filter binding assay; parameters: scale not given: the % may be the effect or the level left
[26] = target: Mitogen-activated protein kinase kinase kinase kinase 2 (Homo sapiens) (UniProt Q12851); experiment: Inhibition of human GCK (2 to 812 residues) assessed as enzyme activity at 1 uM using 33P ATP by radioactive filter binding assay; parameters: scale not given: the % may be the effect or the level left

With `CCCCc1cc(-c2c[nH]c3ncc(-c4cnn(C5CCNCC5)c4)cc23)nc(N)n1` the Ratio [1] was 37 and the Ratio IC50 (Homo sapiens) was 65.

With `CCCCc1cc(-c2c[nH]c3ncccc23)nc(N)n1` the solubility [2] was > 1000 µg/mL.

For `CCc1cc(-c2c[nH]c3ncc(-c4cnn(C5CCNCC5)c4)cc23)nc(N)n1`, the inhibition [3] was 80% and the inhibition [4] was 77%.

`Nc1nccc(-c2c[nH]c3ncccc23)n1` [MERIOLIN 1] gave an Activity [5] of -49%, an Activity [6] of -36% and an Activity [7] of -1%. The Activity [8] was -18%, the Activity [9] was 35% and the Activity [10] was -10%. The Activity [11] was -4%, the Activity [12] was -31% and the Activity [13] was 1%. It also gave an Activity [14] of -5%, an Activity [15] of -13% and an Activity [16] of -69%. For the same compound, the Activity [17] was -82%, the Activity [18] was -15% and the Activity [19] was -3%. For the same compound, the IC50 [20] was 5.9 µM, the Activity [21] was -33% and the Activity [22] was -3%. It also gave an Activity [23] of -98%, an Activity [24] of 15% and an Activity [25] of -14%. For the same compound, the Activity [26] was -83%.
